Measurements: BigSolDB 2.1

O.O=c1c(O)c(-c2ccc(O)cc2)oc2cc(O)cc(O)c12
solubility (mole fraction)
Settings	283.15 K	288.15 K	293.15 K	298.15 K	303.15 K	308.15 K	313.15 K	318.15 K	318.25 K	323.15 K
in ethanol	0.00668	0.00812	0.00993	0.0121	0.0146	0.0178	0.0212	0.025	–	0.0295
in isopropanol	0.00356	0.00502	0.00676	0.00907	0.0126	0.0171	0.0222	–	0.0281	0.036
in n-butanol	0.00626	0.00772	0.00935	0.0113	0.0137	0.0164	0.0197	0.0236	–	0.028
in n-propanol	0.00621	0.00727	0.00861	0.0103	0.0121	0.014	0.0162	0.0188	–	0.0217
in sec-butanol	0.00599	0.00758	0.00926	0.0114	0.0138	0.0164	0.0196	0.0236	–	0.0285
